# Structures can show the parent of a compound that is named as a salt. Where two headings read alike, the source gives them in different places.
# Tests used:
# [1] = tested on: mono-methyl arginine in RKO cells; test: RKO Methylation Assay, In Cell Western (ICW) for mono-methyl arginine and DNA content; type: cell-based; conditions: Homo sapiens, RKO, 72 h
# From the text: RKO adherent cells were purchased from ATCC (American Type Culture Collection), Manassas, Va., USA. DMEM/Glutamax medium, penicillin-streptomycin, heat inactivated fetal bovine serum, 0.05% trypsin and D-PBS were purchased from Life Technologies, Grand Island, N.Y., USA. Odyssey blocking buffer, 800CW goat anti-rabbit IgG (H+L) antibody, and Licor Odyssey infrared scanner were purchased from Licor Biosciences, Lincoln, Nebr., USA. Mono-methyl arginine antibody was purchased from Cell Signaling Technology, Danvers, Mass., USA. Methanol was purchased from VWR, Franklin, Mass., USA. 10% Tween 20 was purchased from KPL, Inc., Gaithersburg, Md., USA. DRAQ5 was purchased from Biostatus Limited, Leicestershire, UK.
# RKO adherent cells were maintained in growth medium (DMEM/Glutamax medium supplemented with 10% v/v heat inactivated fetal bovine serum and 100 units/mL penicillin-streptomycin) and cultured at 37° C. under 5% CO2.
# Cell Treatment, in Cell Western (ICW) for Detection of Mono-Methyl Arginine and DNA Content.
# RKO cells were seeded in assay medium at a concentration of 20,000 cells per mL to a poly-D-lysine coated 384 well culture plate (BD Biosciences 356697) with 50 μL per well. Compound (100 nL) from a 96-well source plate was added directly to 384 well cell plate. Plates were incubated at 37° C., 5% CO2 for 72 hours. After three days of incubation, plates were brought to room temperature outside of the incubator for ten minutes and blotted on paper towels to remove cell media. 50 μL of ice cold 100% methanol was added directly to each well and incubated for 30 min at room temperature. After 30 min, plates were transferred to a Biotek EL406 plate washer and washed 2 times with 100 μL per well of wash buffer (1×PBS). Next 60 μL per well of Odyssey blocking buffer (Odyssey Buffer with 0.1% Tween 20 (v/v)) were added to each plate and incubated 1 hour at room temperature. Blocking buffer was removed and 20 μL per well of primary antibody was added (mono-methyl arginine diluted 1:200 in Odyssey buffer with 0.1% Tween 20 (v/v)) and plates were incubated overnight (16 hours) at 4° C. Plates were washed 5 times with 100 μL per well of wash buffer. Next 20 μL per well of secondary antibody was added (1:200 800CW goat anti-rabbit IgG (H+L) antibody, 1:1000 DRAQ5 (Biostatus limited) in Odyssey buffer with 0.1% Tween 20 (v/v)) and incubated for 1 hour at room temperature. The plates were washed 5 times with 100 μL per well wash buffer then 2 times with 100 μL per well of water. Plates were allowed to dry at room temperature then imaged on the Licor Odyssey machine which measures integrated intensity at 700 nm and 800 nm wavelengths. Both 700 and 800 channels were scanned.
# First, the ratio for each well was determined by:
# Each plate included fourteen control wells of DMSO only treatment (minimum activation) as well as fourteen control wells for maximum activation treated with 20 μM of a reference compound. The average of the ratio values for each control type was calculated and used to determine the percent activation for each test well in the plate. Reference compound was serially diluted three-fold in DMSO for a total of nine test concentrations, beginning at 20 μM. Percent activation was determined and EC30 curves were generated using triplicate wells per concentration of compound.
# [2] = biological target: human PRMT8 (Homo sapiens, UniProt Q9NR22); test: PRMT8 Biochemical Assay (3H-SAM Flashplate, peptide substrate); conditions: single experiment or average of multiple experiments
# From the text: S-adenosylmethionine (SAM), S-adenosylhomocysteine (SAH), bicine, Tween20, dimethylsulfoxide (DMSO), bovine skin gelatin (BSG), isopropyl-β-D-thiogalactopyranoside (IPTG), and Tris(2-carboxyethyl)phosphine hydrochloride solution (TCEP) were purchased from Sigma-Aldrich at the highest level of purity possible. ^3H-SAM was purchase from American Radiolabeled Chemicals with a specific activity of 80 Ci/mmol. 384-well streptavidin Flashplates were purchased from PerkinElmer.
# Peptide representative of human histone H4 residues 31-45 was synthesized with an N-terminal linker-affinity tag motif and a C-terminal amide cap by 21st Century Biochemicals.
# E. coli (BL21(DE3) Gold, Stratagene) made competent by the CaCl2 method were transformed with the PRMT8 construct and ampicillin selection. Protein over-expression was accomplished by growing the PRMT8 expressing E. coli clone and inducing expression with 0.3 mM IPTG at 16° C. The culture was grown for 12 hours, harvested by centrifugation, and stored at −80° C. for purification.
# GST-tagged PRMT8 was eluted with 50 mM Tris, 2 mM glutathione, pH 7.8. Pooled fractions were cleaved by thrombin (10 U) and dialysed in buffer A. GST was removed by reloading the cleaved protein sample onto glutathione sepharose column and PRMT8 was collected in the flow-through fractions. PRMT8 was purified further by ceramic hydroxyapatite chromatography. The column was washed with 50 mM phosphate buffer, 100 mM NaCl, 5% glycerol, 5 mM β-mercaptoethanol, pH 7.8 and PRMT8 was eluted by 100 mM phosphate in the same buffer. Protein was concentrated and buffer was exchanged to 50 mM Tris, 300 mM NaCl, 10% glycerol, 5 mM β-mercaptoethanol, pH 7.8 by ultrafiltration.
# General Procedure for PRMT8 Enzyme Assays on Peptide Substrates.
# The assays were all performed in a buffer consisting of 20 mM Bicine (pH=7.6), 1 mM TCEP, 0.005% BSG, and 0.002% Tween 20, prepared on the day of use. […] DMSO (1 ul) was added to Columns 11, 12, 23, 24, rows A-H for the maximum signal control and 1 ul of SAH, a known product and inhibitor of PRMT8, was added to columns 11, 12, 23, 24, rows I-P for the minimum signal control. A cocktail (40 ul) containing the PRMT8 enzyme was added by Multidrop Combi (Thermo-Fisher). The compounds were allowed to incubate with PRMT8 for 30 min at room temperature, then a cocktail (10 ul) containing ^3H-SAM and peptide was added to initiate the reaction (final volume=51 ul). […] The assays were stopped by the addition of non-radiolabeled SAM (10 ul) to a final concentration of 400 uM, which dilutes the ^3H-SAM to a level where its incorporation into the peptide substrate is no longer detectable. 50 ul of the reaction in the 384-well polypropylene plate was then transferred to a 384-well Flashplate and the biotinylated peptides were allowed to bind to the streptavidin surface for at least 1 hour before being washed once with 0.1% Tween20 in a Biotek ELx405 plate washer. The plates were then read in a PerkinElmer TopCount plate reader to measure the quantity of ^3H-labeled peptide bound to the Flashplate surface, measured as disintegrations per minute (dpm) or alternatively, referred to as counts per minute (cpm).
# Where dpm=disintegrations per minute, cmpd=signal in assay well, and min and max are the respective minimum and maximum signal controls.
# Where top and bottom are the normally allowed to float, but may be fixed at 100 or 0 respectively in a 3-parameter fit. The Hill Coefficient normally allowed to float but may also be fixed at 1 in a 3-parameter fit. Y is the % inhibition and X is the compound concentration.
# [3] = RKO cells, 72 hours, mono-methyl arginine, percent activation, single experiment or average of multiple experiments, read-out: EC30 (In Cell Western data, Numerical)
# [4] = read-out: EC30 (In Cell Western data, Numerical, μM)
# Sequence of human PRMT8 (Q9NR22 whole entry): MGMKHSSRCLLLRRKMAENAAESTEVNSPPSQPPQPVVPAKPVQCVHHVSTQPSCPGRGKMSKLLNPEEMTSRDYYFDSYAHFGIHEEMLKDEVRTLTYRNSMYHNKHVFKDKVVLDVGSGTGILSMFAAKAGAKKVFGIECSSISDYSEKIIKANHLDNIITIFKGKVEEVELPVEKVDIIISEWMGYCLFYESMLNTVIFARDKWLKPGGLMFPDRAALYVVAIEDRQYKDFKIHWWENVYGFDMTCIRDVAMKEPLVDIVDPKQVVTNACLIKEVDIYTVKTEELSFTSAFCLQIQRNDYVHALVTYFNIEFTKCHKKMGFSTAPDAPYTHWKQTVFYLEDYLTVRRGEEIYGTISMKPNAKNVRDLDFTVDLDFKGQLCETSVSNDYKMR
Compound,"EC30 [1, 3]",IC50 [2],"EC30 [1, 4]",EC30 ([1]; read-out: EC30 (In Cell Western data))
COCCn1ncc(CN(C)CCN)c1-c1ccc(F)cc1 [Compound 6],> 20 µM,,,
CCn1ncc(CN(C)CCNC)c1-c1ccc(F)cc1 [Compound 7],5.76 µM,3240 nM,,
CCn1cc(CN(C)CCNC)c(-c2ccc(F)cc2)n1 [Compound 8],> 20 µM,7200 nM,,
CN(CCN)Cc1c[nH]nc1-c1ccc(OCC(F)(F)F)cc1 [Compound 96],0.92 µM,171 nM,,
CC(C)Oc1ccc(-c2n[nH]cc2CN(C)CCN)cc1F [Compound 97],,89 nM,0.184 µM,
CN(CCN)Cc1c[nH]nc1-c1ccc(C2CCOCC2)cc1 [Compound 98],2.85 µM,156 nM,,
CN(CCN)Cc1c[nH]nc1-c1ccc(F)cc1F [Compound 99],11.8 µM,2200 nM,,
CN(CCN)Cc1n[nH]cc1-c1ccc(C#N)cc1 [Compound 100],2.98 µM,290 nM,,
CC(C)c1ccc(-c2c[nH]nc2CN(C)CCN)cc1 [Compound 101],,570 nM,5.99 µM,
CN(CCN)Cc1n[nH]cc1-c1ccc(Cl)cc1 [Compound 102],2.32 µM,311 nM,,
CN(CCN)Cc1n[nH]cc1-c1ccc(C(F)(F)F)cc1 [Compound 103],3.67 µM,366 nM,,
CN(CCN)Cc1n[nH]cc1-c1ccc(C2CC2)cc1 [Compound 104],3.92 µM,301 nM,,
CN(CCN)Cc1n[nH]cc1-c1ccc(OC(F)(F)F)cc1 [Compound 105],2.28 µM,130 nM,,
COc1ccc(-c2n[nH]cc2CN(C)CCN)c(F)c1 [Compound 107],,912 nM,,
Cc1ccc(-c2n[nH]cc2CN(C)CCN)c(F)c1 [Compound 108],,1000 nM,,
COc1ccccc1-c1n[nH]cc1CN(C)CCN [Compound 109],,2080 nM,,
Cc1cc(C#N)ccc1-c1n[nH]cc1CN(C)CCN [Compound 110],,540 nM,,
CN(CCN)Cc1c[nH]nc1-c1cc(F)cc(F)c1 [Compound 111],,799 nM,,
CC(=O)c1cccc(-c2n[nH]cc2CN(C)CCN)c1 [Compound 112],,335 nM,,
CN(CCN)Cc1c[nH]nc1-c1ccc(OC2CC2)cc1 [Compound 114],0.607 µM,47.5 nM,,
CC(O)c1ccc(-c2n[nH]cc2CN(C)CCN)cc1 (stereo not shown) [Compound 115],,1100 nM,,
CN(CCN)Cc1c[nH]nc1-c1ccc(C2CC2)cc1 [Compound 116],1.41 µM,124 nM,,
CN(CCN)Cc1c[nH]nc1-c1ccc(C(F)(F)F)c(Cl)c1 [Compound 117],1.29 µM,87.8 nM,,

Compound,"EC30 [1, 3]",IC50 [2],"EC30 [1, 4]",EC30 ([1]; read-out: EC30 (In Cell Western data))
CN(CCN)Cc1c[nH]nc1-c1ccc(Cl)c(F)c1 [Compound 118],0.314 µM,136 nM,,
CN(CCN)Cc1n[nH]cc1-c1ccc(OC2CC2)cc1 [Compound 119],4.54 µM,336 nM,,
CN(CCN)Cc1c[nH]nc1-c1cc(F)cc(Cl)c1 [Compound 121],2.07 µM,218 nM,,
CN(CCN)Cc1c[nH]nc1-c1cccc(Cl)c1 [Compound 122],3.48 µM,548 nM,,
CN(CCN)Cc1c[nH]nc1-c1cccc(Cl)c1F [Compound 123],2.96 µM,532 nM,,
CN(CCN)Cc1c[nH]nc1-c1ccc(F)c(Cl)c1 [Compound 124],1.23 µM,294 nM,,
COc1ccc(-c2n[nH]cc2CN(C)CCN)cc1Cl [Compound 125],,308 nM,1.57 µM,
Cc1ccc(-c2n[nH]cc2CN(C)CCN)cc1Cl [Compound 126],1.23 µM,232 nM,,
COc1cc(Cl)cc(-c2n[nH]cc2CN(C)CCN)c1 [Compound 127],7.01 µM,548 nM,,
Cc1c(F)cccc1-c1n[nH]cc1CN(C)CCN [Compound 129],7.38 µM,990 nM,,
COc1cccc(-c2n[nH]cc2CN(C)CCN)c1 [Compound 130],3.92 µM,645 nM,,
Cc1cccc(-c2n[nH]cc2CN(C)CCN)c1 [Compound 131],2.56 µM,360 nM,,
CN(CCN)Cc1c[nH]nc1-c1ccc(Cl)cc1F [Compound 132],,365 nM,2.4 µM,
Cc1cc(Cl)ccc1-c1n[nH]cc1CN(C)CCN [Compound 133],2.91 µM,142 nM,,
COc1ccc(-c2n[nH]cc2CN(C)CCN)cc1F [Compound 134],1.09 µM,251 nM,,
CN(CCN)Cc1c[nH]nc1-c1ccc(C(F)(F)F)cc1Cl [Compound 135],8.05 µM,1320 nM,,
CCNC(=O)c1ccc(-c2n[nH]cc2CN(C)CCN)cc1 [Compound 136],> 20 µM,496 nM,,
CN(CCN)Cc1c[nH]nc1-c1cc(Cl)cc(Cl)c1 [Compound 137],4.18 µM,656 nM,,
CN(CCN)Cc1n[nH]cc1-c1ccc(OC(F)F)cc1 [Compound 138],2.28 µM,131 nM,,
CN(CCN)Cc1c[nH]nc1-c1ccccc1C#N [Compound 140],> 20 µM,8270 nM,,
CN(CCN)Cc1c[nH]nc1-c1ccc(C(F)(F)F)c(F)c1 [Compound 141],0.583 µM,305 nM,,
"CNCCN(C)Cc1cnn(C)c1-c1ccc(OC(C)C)cc1 [Compound 244, hydrochloride]",,,0.142 µM,< 3 µM

# From patent US9776972B2, “Pyrazole derivatives as arginine methyltransferase inhibitors and uses thereof” (priority 2013, dated 2017)
